Measurements: US10611750B2, “Tetrahydroquinoline compositions as bet bromodomain inhibitors” (FORMA Therapeutics, Inc., priority 2013, dated 2020)

Tests used:
[1] = test system: acute myelocytic leukemia (AML) cell line MV4-11; experiment: Oncology cell growth assay (3-day proliferation, CellTiter-Glo); type: cell-based; conditions: Homo sapiens, MV4-11, 72 h, MV4-11 cells, 3000 cells/well, compounds listed under IC50 range headings, read-out: MV411 IC50 (gIC50, inhibition of proliferation)
How it was run: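 Luminescence from CellTiter-Glo served as the growth read-out after MV4-11 cells (3000/well) were cultured with compound for 72 hours. Final concentrations spanned 10 to 0.0045 μM in 3-fold steps. gIC50 values were derived by four-parameter logistic fitting relative to DMSO and cell-free controls.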

[2] = biological target: T1, BRD4 Bromodomain 1 (BRD4 BD1) (Homo sapiens, UniProt O60885); experiment: AlphaScreen binding assay, BRD4 BD1; conditions: His-tagged BRD4 BD1 50 nM, biotinylated H4 (1-21) K5/8/12/16 tetra-acetylated peptide 50 nM, compounds listed under IC50 range headings
T1 construct: 44-168 and BRD4 BD2
How it was run: (§1)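 Compound dilution series were mixed with His-tagged BRD4 bromodomain and biotinylated tetra-acetylated H4 (1-21) peptide at pH 7.3 (BD1 and peptide at 50 nM, BD2 and peptide at 100 nM). Donor and acceptor beads were then added, and plates were equilibrated at least 1 h before reading. IC50 values were fitted with a four-parameter logistic model.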

[3] = biological target: T2, BRD4 Bromodomain 2 (BRD4 BD2) (Homo sapiens, UniProt O60885); experiment: AlphaScreen binding assay, BRD4 BD2; conditions: His-tagged BRD4 BD2 100 nM, biotinylated H4 (1-21) K5/8/12/16 tetra-acetylated peptide 100 nM, compounds listed under IC50 range headings
T2 construct: 333-460 were cloned, expressed, and purified to homogeneity
How it was run: as §1

| SMILES | IC50 [1] [nM] | IC50 [2] [nM] | IC50 [3] [nM] |
| --- | --- | --- | --- |
| COC(=O)N1c2ccc(-c3cnn(C4CCNCC4)c3)c(Oc3ncc(C(F)(F)F)cc3F)c2CC[C@@H]1C [I-536] | 500 to 1000 | 1000 to 10000 | 50 to 500 |
| COC(=O)c1ccc(Oc2c(-c3cnn(C4CCNCC4)c3)ccc3c2CC[C@H](C)N3C(=O)OC)nc1 [I-537] | 500 to 1000 | 1000 to 10000 | 50 to 500 |
| COC(=O)N1c2ccc(-c3cnn(C4CCNCC4)c3)c(Oc3ccc(C(N)=O)cn3)c2CC[C@@H]1C [I-538] | > 1000 | 1000 to 10000 | 50 to 500 |
| C[C@H]1CCc2c(ccc(-c3cnn(C4CCNCC4)c3)c2Oc2ncccc2C(F)(F)F)N1C(=O)C1CC1 [I-539] | < 500 | 1000 to 10000 | 50 to 500 |
| C[C@H]1CCc2c(ccc(-c3cnn(C4CCNCC4)c3)c2Oc2ncccc2C#N)N1C(=O)C1CC1 [I-540] | < 500 | 100 to 1000 | 50 to 500 |
| C[C@H]1CCc2c(ccc(-c3cnn(C4CCNCC4)c3)c2Oc2ccc(C(F)(F)F)cn2)N1C(=O)C1CC1 [I-541] | < 500 | 1000 to 10000 | 50 to 500 |
| CC(=O)N1c2ccc(-c3ccc4c(c3)CCN4S(C)(=O)=O)c(Oc3ncc(F)cn3)c2CC[C@@H]1C [I-548] | < 500 | 1000 to 10000 | 50 to 500 |
| CC(=O)N1c2ccc(-c3ccc(S(C)(=O)=O)cc3)c(Oc3ncc(F)cn3)c2CC[C@@H]1C [I-549] | 500 to 1000 | 1000 to 10000 | 50 to 500 |
| CC(=O)N1c2ccc(-c3cnn(CC(C)(C)O)c3)c(Oc3ncc(F)cn3)c2CC[C@@H]1C [I-551] | < 500 | 100 to 1000 | < 50 |
| CC(=O)N1c2ccc(-c3cnn(C(C)(C)CO)c3)c(Oc3ncc(F)cn3)c2CC[C@@H]1C [I-552] | < 500 | 100 to 1000 | < 50 |
| CC(=O)N1c2ccc(-c3ccc(N4CCCS4(=O)=O)cc3)c(Oc3ncc(F)cn3)c2CC[C@@H]1C [I-553] | < 500 | 100 to 1000 | < 50 |
| COC(=O)N1c2ccc(-c3cnn(CCS(C)(=O)=O)c3)c(Oc3ccc(C(F)(F)F)cn3)c2CC[C@@H]1C [I-554] | > 1000 | 1000 to 10000 | 50 to 500 |
| COC(=O)N1c2ccc(-c3cnn(CC(C)(C)O)c3)c(Oc3ccc(C(F)(F)F)cn3)c2CC[C@@H]1C [I-555] | > 1000 | 1000 to 10000 | 50 to 500 |
| COC(=O)N1c2ccc(-c3cnn(C4CC4)c3)c(Oc3ccc(C(F)(F)F)cn3)c2CC[C@@H]1C [I-557] | > 1000 | 1000 to 10000 | 50 to 500 |
| COC(=O)N1c2ccc(-c3cnn(CCS(C)(=O)=O)c3)c(Oc3cnccn3)c2CC[C@@H]1C [I-558] | > 1000 | 1000 to 10000 | 50 to 500 |
| COC(=O)N1c2ccc(-c3cnn(CC(C)(C)O)c3)c(Oc3cnccn3)c2CC[C@@H]1C [I-559] | 500 to 1000 | 1000 to 10000 | 50 to 500 |
| COC(=O)N1c2ccc(-c3cnn(CCS(C)(=O)=O)c3)c(Oc3ncccc3C(F)(F)F)c2CC[C@@H]1C [I-562] | 500 to 1000 | 1000 to 10000 | 50 to 500 |
| COC(=O)N1c2ccc(-c3cnn(CC(C)(C)O)c3)c(Oc3ncccc3C(F)(F)F)c2CC[C@@H]1C [I-563] | > 1000 | 1000 to 10000 | < 50 |
| COC(=O)N1c2ccc(-c3cnn(C4CC4)c3)c(Oc3ncccc3C(F)(F)F)c2CC[C@@H]1C [I-565] | 500 to 1000 | 1000 to 10000 | 50 to 500 |
| COC(=O)N1c2ccc(-c3cnn(CCS(C)(=O)=O)c3)c(Oc3ncccc3C#N)c2CC[C@@H]1C [I-566] | > 1000 | 1000 to 10000 | 50 to 500 |
| COC(=O)N1c2ccc(-c3cnn(CC(C)(C)O)c3)c(Oc3ncccc3C#N)c2CC[C@@H]1C [I-567] | 500 to 1000 | 1000 to 10000 | 50 to 500 |
| COC(=O)N1c2ccc(-c3cnn(C4CC4)c3)c(Oc3ncccc3C#N)c2CC[C@@H]1C [I-569] | < 500 | 1000 to 10000 | 50 to 500 |
| COC(=O)N1c2ccc(-c3cnn(CCS(C)(=O)=O)c3)c(Oc3ncccc3C(N)=O)c2CC[C@@H]1C [I-586] | > 1000 | 1000 to 10000 | 50 to 500 |
| COC(=O)N1c2ccc(-c3cnn(C4CC4)c3)c(Oc3ncccc3C(N)=O)c2CC[C@@H]1C [I-587] | 500 to 1000 | 1000 to 10000 | 50 to 500 |

More lines, now with the values ahead:

| IC50 [1] [nM] | IC50 [2] [nM] | IC50 [3] [nM] | SMILES |
| --- | --- | --- | --- |
| < 500 | 100 to 1000 | 50 to 500 | CC(=O)N1c2ccc(-c3cnn(CCO)c3)c(Oc3ncc(C(F)(F)F)cn3)c2CC[C@@H]1C [I-542] |
| < 500 | 100 to 1000 | 50 to 500 | CC(=O)N1c2ccc(-c3cnn(CCO)c3)c(Oc3ncc(F)cn3)c2CC[C@@H]1C [I-543] |
| < 500 | 100 to 1000 | < 50 | CC(=O)N1c2ccc(-c3cnn(CCO)c3)c(Oc3ncc(C(C)C)cn3)c2CC[C@@H]1C [I-545] |
| 500 to 1000 | 100 to 1000 | < 50 | COc1cnc(Oc2c(-c3cnn(CCO)c3)ccc3c2CC[C@H](C)N3C(C)=O)nc1 [I-546] |
| < 500 | 100 to 1000 | < 50 | CC(=O)N1c2ccc(-c3cnn(CCO)c3)c(Oc3ncc(C4CC4)cn3)c2CC[C@@H]1C [I-547] |
| < 500 | 100 to 1000 | < 50 | CC(=O)N1c2ccc(-c3cnn(CCS(C)(=O)=O)c3)c(Oc3ncc(F)cn3)c2CC[C@@H]1C [I-550] |
| 500 to 1000 | 1000 to 10000 | 50 to 500 | COC(=O)N1c2ccc(-c3cnn(CCO)c3)c(Oc3ccc(C(F)(F)F)cn3)c2CC[C@@H]1C [I-556] |
| 500 to 1000 | 1000 to 10000 | 50 to 500 | COC(=O)N1c2ccc(-c3cnn(CCO)c3)c(Oc3cnccn3)c2CC[C@@H]1C [I-560] |
| 500 to 1000 | 1000 to 10000 | 50 to 500 | COC(=O)N1c2ccc(-c3cnn(C4CC4)c3)c(Oc3cnccn3)c2CC[C@@H]1C [I-561] |
| 500 to 1000 | 1000 to 10000 | 50 to 500 | COC(=O)N1c2ccc(-c3cnn(CCO)c3)c(Oc3ncccc3C(F)(F)F)c2CC[C@@H]1C [I-564] |
| < 500 | 1000 to 10000 | 50 to 500 | COC(=O)N1c2ccc(-c3cnn(CCO)c3)c(Oc3ncccc3C#N)c2CC[C@@H]1C [I-568] |
| > 1000 | 1000 to 10000 | 50 to 500 | COC(=O)N1c2ccc(-c3cnn(CCS(C)(=O)=O)c3)c(Oc3ncc(C4CC4)cn3)c2CC[C@@H]1C [I-570] |
| 500 to 1000 | 1000 to 10000 | 50 to 500 | COC(=O)N1c2ccc(-c3cnn(CC(C)(C)O)c3)c(Oc3ncc(C4CC4)cn3)c2CC[C@@H]1C [I-571] |
| < 500 | 1000 to 10000 | 50 to 500 | COC(=O)N1c2ccc(-c3cnn(CCO)c3)c(Oc3ncc(C4CC4)cn3)c2CC[C@@H]1C [I-572] |
| 500 to 1000 | 1000 to 10000 | 50 to 500 | COC(=O)N1c2ccc(-c3cnn(C4CC4)c3)c(Oc3ncc(C4CC4)cn3)c2CC[C@@H]1C [I-573] |
| 500 to 1000 | 1000 to 10000 | 50 to 500 | COC(=O)N1c2ccc(-c3cnn(CCS(C)(=O)=O)c3)c(Oc3ncc(F)cn3)c2CC[C@@H]1C [I-574] |
| 500 to 1000 | 1000 to 10000 | 50 to 500 | COC(=O)N1c2ccc(-c3cnn(CC(C)(C)O)c3)c(Oc3ncc(F)cn3)c2CC[C@@H]1C [I-575] |
| > 1000 | 1000 to 10000 | ≥ 500 | COC(=O)N1c2ccc(-c3cnn(CCO)c3)c(Oc3ncc(F)cn3)c2CC[C@@H]1C [I-576] |
| < 500 | 1000 to 10000 | 50 to 500 | COC(=O)N1c2ccc(-c3cnn(C4CC4)c3)c(Oc3ncc(F)cn3)c2CC[C@@H]1C [I-577] |
| > 1000 | 1000 to 10000 | 50 to 500 | COC(=O)N1c2ccc(-c3cnn(CCS(C)(=O)=O)c3)c(Oc3ncc(C(F)(F)F)cn3)c2CC[C@@H]1C [I-578] |
| > 1000 | 1000 to 10000 | 50 to 500 | COC(=O)N1c2ccc(-c3cnn(CC(C)(C)O)c3)c(Oc3ncc(C(F)(F)F)cn3)c2CC[C@@H]1C [I-579] |
| 500 to 1000 | 1000 to 10000 | 50 to 500 | COC(=O)N1c2ccc(-c3cnn(CCO)c3)c(Oc3ncc(C(F)(F)F)cn3)c2CC[C@@H]1C [I-580] |
| > 1000 | 1000 to 10000 | 50 to 500 | COC(=O)N1c2ccc(-c3cnn(C4CC4)c3)c(Oc3ncc(C(F)(F)F)cn3)c2CC[C@@H]1C [I-581] |
| > 1000 | 1000 to 10000 | 50 to 500 | COC(=O)N1c2ccc(-c3cnn(CCS(C)(=O)=O)c3)c(Oc3ncc(C)cn3)c2CC[C@@H]1C [I-582] |
| < 500 | 1000 to 10000 | 50 to 500 | COC(=O)N1c2ccc(-c3cnn(CC(C)(C)O)c3)c(Oc3ncc(C)cn3)c2CC[C@@H]1C [I-583] |
| 500 to 1000 | 1000 to 10000 | 50 to 500 | COC(=O)N1c2ccc(-c3cnn(CCO)c3)c(Oc3ncc(C)cn3)c2CC[C@@H]1C [I-584] |
| < 500 | 100 to 1000 | 50 to 500 | COC(=O)N1c2ccc(-c3cnn(C4CC4)c3)c(Oc3ncc(C)cn3)c2CC[C@@H]1C [I-585] |
